Experimental findings from patent US7517998B2, “Non nucleoside reverse transcriptase inhibitors” (priority 2004, dated 2009) are described below.

One test has as its target T1, K103NNY181C mutant reverse transcriptase (Human immunodeficiency virus type 1 group M subtype B, UniProt P04585, K690N/Y768C).
T1 construct: mutations that occur in the reverse transcriptase segment of the pol gene
In words: Reverse transcriptase enzymatic assay (PicoGreen), K103N/Y181C mutant RT. The test is classed as biochemical, HIV-1. Particulars: IC50 mut (nM), mutant (K103N/Y181C) reverse transcriptase, enzymatic assay of Example 24. The essentials:
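PicoGreen fluorescence (ex 485, em 520 nm) quantified product after EDTA stop. Reaction ran 50 min at 37 °C in pH 7.8 Tris/HCl buffer, 1% DMSO, with poly rC/dG15 template-primer (45/4.5 nM), 3.6 μM dGTP, 2.5 nM enzyme; inhibitor 10 μM–0.508 nM final after 15 min room-temperature pre-incubation.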
As a reminder, the IC50 is the concentration needed to halve the response being measured. With `CC(C)(C)c1ccc(-n2nnnc2SCC(=O)Nc2ccc(NC(=O)c3ccc(C(=O)O)cc3)cc2Cl)c(Cl)c1` [Compound 7029], the IC50 worked out at 88 nM.

`CC(C)(C)c1ccc(-n2nnnc2SCC(=O)Nc2ccc(NC(=O)Cc3ccccc3)cc2Cl)c(Cl)c1` [Compound 7001] registered an IC50 of 116 nM.

The compound `CC(C)(C)c1ccc(-n2nnnc2SCC(=O)Nc2ccc(NS(=O)(=O)c3cccs3)cc2Cl)c(Cl)c1` [Compound 7007] registered an IC50 of 331 nM.

The compound `CC(C)(C)c1ccc(-n2nnnc2SCC(=O)Nc2ccc(NC(=O)Cn3cnnn3)cc2Cl)c(Cl)c1` [Compound 7040] showed an IC50 of 42.5 nM.

On to `CC(C)(C)c1ccc(-n2nnnc2SCC(=O)Nc2ccc(NC(=O)Cc3cccnc3)cc2Cl)c(Cl)c1` [Compound 7031], for which the IC50 stood at 43 nM.

For the compound `CC(C(=O)Nc1ccc(NC(=O)CSc2nnnn2-c2ccc(C(C)(C)C)cc2Cl)c(Cl)c1)c1ccccc1` (centres unmarked) [Compound 7044], half-maximal inhibition (IC50) required 335 nM.

The same test, now with this note: IC50 mut, K103N/Y181C mutant reverse transcriptase, enzymatic assay of Example 24.
`CC(C)(N)C#Cc1ccc(NC(=O)CSc2nnnn2-c2cc(C(F)(F)F)cc(C3CC3)c2Cl)c(Cl)c1F` [Compound 4237] yielded an IC50 of 91.5 nM.

On to `CC(C)(C#Cc1ccc(NC(=O)CSc2nnnn2-c2ccc(C3CC3)cc2Cl)c(Cl)c1)OCC(N)=O` [Compound 4064], for which the IC50 was found to be 11.5 nM. Against the preceding compound, the IC50 is about 8-fold lower.

In turn, `CC(C)(C#Cc1ccc(NC(=O)CSc2nnnn2-c2ccc(C3CC3)cc2Cl)c(Cl)c1)NC(=O)c1cc[n+]([O-])cc1` [Compound 4086] gave an IC50 of 12 nM. The IC50 values of the last two compounds are within 1.5-fold of each other.

For the compound `CC(C)(C#Cc1ccc(NC(=O)CSc2nnnn2-c2ccc(C3CC3)cc2Cl)c(Cl)c1)OCCN1CCCCC1` [Compound 4103], the midpoint of inhibition, the IC50, lay at 218 nM.

`COc1ccc(Cl)c(-n2nnnc2SCC(=O)Nc2ccc(C#CC(C)(C)C(=O)O)cc2Cl)c1` [Compound 4114] had an IC50 of 200 nM. This IC50 and that of the compound before are within 1.5-fold of each other.

On to `CC(C)(C#Cc1ccc(NC(=O)CSc2nnnn2-c2cc(C(C)(C)C)ccc2Cl)c(Cl)c1)NC(=O)CNc1cc[n+]([O-])cc1` [Compound 4203], for which the IC50 was found to be 164 nM.

`Cc1cc(Cl)c(-n2nnnc2SCC(=O)Nc2ccc(C#CC(C)(C)O)cc2Cl)cc1C(F)(F)F` [Compound 4060] showed an IC50 of 42 nM.

For `CC(C)(C#Cc1ccc(NC(=O)CSc2nnnn2-c2cccc(Cl)c2Cl)c(Cl)c1)C(=O)O` [Compound 4161], the IC50 amounted to 224 nM.

In turn, `CC(C)(C#Cc1ccc(NC(=O)CSc2nnnn2-c2ccc(C3CC3)cc2Cl)c(Cl)c1)C(=O)NS(=O)(=O)C1CC1` [Compound 4184] had an IC50 of 30.5 nM.

Compound `CC(C)(C#Cc1ccc(NC(=O)CSc2nnnn2-c2ccc(C3CC3)cc2Cl)c(Cl)c1)NC(=O)CCC(=O)O` [Compound 4238] came in with an IC50 of 7.8 nM.

Regarding `Cc1cc(Cl)c(-n2nnnc2SCC(=O)Nc2ccc(C#CC(C)(C)C(=O)O)cc2Cl)cc1C(F)(F)F` [Compound 4063], inhibition was half-maximal at 51.5 nM (IC50).

`CC(C)(C)c1ccc(-n2nnnc2SCC(=O)Nc2ccc(C#CCOC(N)=O)cc2Cl)c(Cl)c1` [Compound 4034]: the IC50 is 8.9 nM. Against the preceding compound, the IC50 is about 5.8-fold lower.

`CN(C)CC(=O)NC(C)(C)C#Cc1ccc(NC(=O)CSc2nnnn2-c2cc(C(F)(F)F)ccc2Cl)c(Cl)c1` [Compound 4138] came in with an IC50 of 43 nM.

For the compound `COC(=O)C(C)(C)C#Cc1ccc(NC(=O)CSc2nnnn2-c2cc(C(F)(F)F)ccc2Cl)c(Cl)c1` [Compound 4077], half-maximal inhibition (IC50) was put at 44.5 nM.

Turning to `CNC(=O)COC(C)(C)C#Cc1ccc(NC(=O)CSc2nnnn2-c2ccc(C(C)(C)C)cc2Cl)c(Cl)c1` [Compound 4051], it took 35 nM to reach half-maximal inhibition (IC50).

In turn, `CN(C)c1ccc(Cl)c(-n2nnnc2SCC(=O)Nc2ccc(C#CC(C)(C)C(=O)O)cc2Cl)c1` [Compound 4243] had an IC50 of 140 nM. This IC50 is about 4-fold higher than that of the compound before.

Regarding `O=C(CSc1nnnn1-c1ccc(C2CC2)cc1Cl)Nc1ccc(C#CC2(CO)CC2)cc1Cl` [Compound 4083], the IC50 was 29 nM.

`CC(C)(C#Cc1ccc(NC(=O)CSc2nnnn2-c2ccc(C(C)(C)C)cc2Cl)c(Cl)c1)COC(N)=O` [Compound 4042] yielded an IC50 of 37 nM.

Take `CC(C)(N)C#Cc1ccc(NC(=O)CSc2nnnn2-c2ccc(C3CC3)cc2Cl)c(Cl)c1F` [Compound 4151]: half-maximal inhibition (IC50) was put at 22.5 nM. This IC50 is about 1.6-fold lower than that of the compound before.

In turn, `CC(C)(C#Cc1ccc(NC(=O)CSc2nnnn2-c2cc(C(F)(F)F)ccc2Cl)c(Cl)c1)OCCOc1ccncc1` [Compound 4168] returned an IC50 of 108 nM.

On to `CC(C)(C#Cc1ccc(NC(=O)CSc2nnnn2-c2cccc(C3CC3)c2Cl)c(Cl)c1)C(=O)O` [Compound 4179], for which the IC50 worked out at 467 nM. Compared with the last compound, the IC50 is about 4.3-fold higher.

Turning to `CC(C)(C#Cc1ccc(NC(=O)CSc2nnnn2-c2ccc(C3CC3)cc2Cl)c(Cl)c1)C(=O)NC(C)(C)C(=O)O` [Compound 4144], the IC50 amounted to 81 nM.

The same test, now with this note: IC50 mut, mutant reverse transcriptase, enzymatic assay of Example 24.
Consider `O=C(COc1ccc(NC(=O)CSc2nnnn2-c2ccc(C3CC3)cc2Cl)c(Cl)c1)NCCc1ccccn1` [Compound 5034], for which the IC50 was 357 nM.

On to `CC(CC(=O)O)NC(=O)COc1ccc(NC(=O)CSc2nnnn2-c2ccc(C(C)(C)C)cc2Cl)c(Cl)c1` (centres unmarked) [Compound 5014], for which the IC50 amounted to 146 nM. This IC50 is about 2.4-fold lower than that of the compound before.

`O=C(O)Cc1ccc(-c2ccc(NC(=O)CSc3nnnn3-c3ccc4ccccc4c3Cl)c(Cl)c2)cc1` [Compound 2030] had an IC50 of 64 nM.

Consider `O=C(COc1ccc(NC(=O)CSc2nnnn2-c2ccc(C3CC3)cc2Cl)c(Cl)c1)NCCc1cc[n+]([O-])cc1` [Compound 5040], for which the IC50 came to 563 nM.

Turning to `Cc1ccc(-c2nnsc2SCC(=O)Nc2ccc(-c3ccc(CC(=O)O)cc3)cc2Cl)c(Cl)c1` [Compound 1007], 107 nM corresponded to half-maximal inhibition (IC50). This IC50 lies about 5.3-fold lower than the previous one.

`O=C(CSc1nnnn1-c1ccc(C2CC2)cc1Cl)Nc1ccc(S(=O)(=O)N2CCC(C(=O)O)CC2)cc1Cl` [Compound 3042] gave an IC50 of 387 nM.

Compound `O=C(O)Cc1ccc(-c2ccc(NC(=O)CSc3nnnn3-c3ccc(C4CC4)cc3Cl)c(Br)c2)cc1` [Compound 2048] yielded an IC50 of 13 nM.

In turn, `CC(C)(C)c1ccc(-n2nnnc2SCC(=O)Nc2ccc(-c3ccc(OCC(=O)O)cc3F)cc2Cl)c(Cl)c1` [Compound 3020] yielded an IC50 of 23 nM. Compared with the last compound, the IC50 is about 1.8-fold higher.

Take `CC(C)(C)c1ccc(-n2nnnc2SCC(=O)Nc2ccc(C(=O)N3CCOCC3)cc2Cl)c(Cl)c1` [Compound 6005]: inhibition was half-maximal at 564 nM (IC50).

As to `CS(=O)(=O)NC(=O)c1ccc(NC(=O)CSc2nnnn2-c2ccc(C3CC3)cc2Cl)c(Cl)c1` [Compound 6036], the IC50 worked out at 146 nM.

For the compound `CNC(=O)NS(=O)(=O)c1ccc(NC(=O)CSc2nnnn2-c2ccc(C3CC3)cc2Cl)c(Cl)c1` [Compound 3039], half-maximal inhibition (IC50) was put at 268 nM.

In turn, `CC(C)(C)c1ccc(-n2nnnc2SCC(=O)Nc2ccc(OCC(=O)Nc3ccc(O)cc3)cc2Cl)c(Cl)c1` [Compound 5013] had an IC50 of 150 nM.

Take `CC(C)(C)c1ccc(-n2nnnc2SCC(=O)Nc2ccc(OCC(=O)Nc3ccc(CC(=O)O)cc3)cc2Cl)c(Cl)c1` [Compound 5023]: half-maximal inhibition (IC50) was put at 38 nM.

Compound `CC(C)c1ccc(-n2nnnc2SCC(=O)Nc2ccc(-c3ccc(OCCN4CCCC4)cc3)cc2Cl)c(Br)c1` [Compound 2053] had an IC50 of 24 nM.

`CC(C)(C)c1ccc(-n2nnnc2SCC(=O)Nc2ccc(C(=O)N3CCC(C(=O)O)CC3)cc2Cl)c(Cl)c1` [Compound 6030] registered a 50% inhibitory concentration (IC50) of 919 nM.

In the case of `O=C(CSc1nnnn1-c1ccc(C2CC2)cc1Cl)Nc1ccc(C(=O)NCc2ccc[n+]([O-])c2)cc1Cl` [Compound 6039], the IC50 came to 104 nM. Against the preceding compound, the IC50 is about 8.8-fold lower.

`Cc1cc(F)c(-n2nnnc2SCC(=O)Nc2ccc(-c3ccc(C(C)(C)C(=O)O)cc3)cc2Cl)c(Cl)c1` [Compound 2026] returned an IC50 of 48 nM. This IC50 lies about 2.2-fold lower than the previous one.

In turn, `Cc1ccc(-n2nccc2OCC(=O)Nc2ccc(-c3ccc(CC(=O)O)cc3)cc2Cl)c(Cl)c1` [Compound 1003] registered an IC50 of 770 nM.

Regarding `CC(C)(C)c1ccc(-n2nnnc2SCC(=O)Nc2ccc(C(=O)NN3CCOCC3)cc2Cl)c(Cl)c1` [Compound 6007], it took 30 nM to reach half-maximal inhibition (IC50).

As to `CC(C)(C)c1ccc(-n2nnnc2SCC(=O)Nc2ccc(OCC(=O)NCCc3ccc(O)cc3)cc2Cl)c(Cl)c1` [Compound 5016], 116 nM corresponded to half-maximal inhibition (IC50). Compared with the last compound, the IC50 is about 3.9-fold higher.

Consider `Cc1ccc(-n2c(C)cnc2SCC(=O)Nc2ccc(-c3ccc(CC(=O)O)cc3)cc2Cl)c(Cl)c1` [Compound 1009], for which 549 nM corresponded to half-maximal inhibition (IC50).

For `CC(C)(C)c1ccc(-n2nnnc2SCC(=O)Nc2ccc(OCCN3CCOCC3)cc2Cl)c(Cl)c1` [Compound 3034], the midpoint of inhibition, the IC50, lay at 111 nM.

`Cn1cc(NC(=O)COc2ccc(NC(=O)CSc3nnnn3-c3ccc(C(C)(C)C)cc3Cl)c(Cl)c2)cc1C(=O)O` [Compound 5029]: the IC50 worked out at 34 nM. Compared with the last compound, the IC50 is about 3.3-fold lower.

In turn, `CC(C)(C)c1ccc(-n2nnnc2SCC(=O)Nc2ccc(OCCN3CCCCC3)cc2Cl)c(Cl)c1` [Compound 3033] showed an IC50 of 201 nM.

The compound `CC(C)(C)c1ccc(-n2nnnc2SCC(=O)Nc2ccc(C(=O)Nc3ccc(CC(=O)O)cc3)cc2Cl)c(Cl)c1` [Compound 6001] gave an IC50 of 69 nM.

Compound `CC(C)(C)c1ccc(-n2nnnc2SCC(=O)Nc2ccc(-c3ccc(CCC(=O)O)cc3)cc2Cl)c(Cl)c1` [Compound 2028] yielded an IC50 of 9.3 nM.

With `CC(C)(C)c1ccc(-n2nnnc2SCC(=O)Nc2ccc(C(=O)NC(CO)C(=O)O)cc2Cl)c(Cl)c1` (centres unmarked) [Compound 6018], the IC50 was 28 nM. Compared with the last compound, the IC50 is about 3-fold higher.

For `CC(C)(C)c1ccc(-n2nnnc2SCC(=O)Nc2ccc(OCC(=O)NCCN3CCOCC3)cc2Cl)c(Cl)c1` [Compound 5007], the half-inhibitory concentration (IC50) is 244 nM. Compared with the last compound, the IC50 is about 8.7-fold higher.

On to `CC(C)(C)c1ccc(-n2nnnc2SCC(=O)Nc2ccc(C(=O)Nc3ccc(C(=O)O)cc3)cc2Cl)c(Cl)c1` [Compound 6014], for which the IC50 was found to be 34 nM.

In the case of `CC(C)(C)c1ccc(-n2nnnc2SCC(=O)Nc2ccc(OCC(=O)NCCc3ccc(O)c(O)c3)cc2Cl)c(Cl)c1` [Compound 5021], the midpoint of inhibition, the IC50, lay at 181 nM.

For the compound `CC(C)(C)c1ccc(-n2nnnc2SCC(=O)Nc2ccc(S(=O)(=O)Nc3ccccc3)cc2Cl)c(Cl)c1` [Compound 3026], it took 423 nM to reach half-maximal inhibition (IC50).
